This is an account of results in a melting point compilation (Tetko et al.; mined from patent text by program, amines drawn as free bases though some values may be those of a salt).

SMILES strings stand for the structures.

Compound `CCOC(=O)c1c(-c2ccc(OC)cc2)c2oc3ccc(-c4ccccc4)cc3c2n(Cc2cc(OC)ccc2OC)c1=O` came in with a melting point of 216 °C. As for `CC(C)(C)OC(=O)NC(=S)NC(=O)OC(C)(C)C`, the figure is 124 to 127 °C; as for `O=C(CS(=O)(=O)N1CC=C(c2ccc(-c3ccccc3)cc2)CC1)NO`, 216 to 218 °C; as for `COC(=O)c1cc(=NS(=O)(=O)c2ccc(C)cc2)c2c(Cl)cc(Cl)cc2[nH]1`, 210 to 212 °C.

In turn, `NN1C(=O)C(C(=O)C(Cc2ccc3ccccc3c2)NC(=O)OCc2ccccc2)C1Oc1ccccc1` (stereo not drawn) displayed a melting point of 205 to 206 °C. As for `CCCCCS(=O)(=O)NC(=O)/C=C/c1ccc(OCC(COC(C)C)OC(C)=O)cc1Oc1ncc(C(F)(F)F)cc1Cl` (stereo not drawn), the figure is 101 to 103 °C; as for `CCC(=O)N1CCC(NC(=O)N[C@@H]2C[C@H]2c2ccccc2)CC1` (relative stereo), 155 to 158 °C; as for `CC(=O)Oc1c(C)cc2c(c1C)C(C)CN2C(=O)C(C)C` (stereo not drawn), 118 to 120 °C. For `CCN(CC)c1ccc([N+](=O)[O-])c2nnoc12`, the melting point was 133 to 136 °C. With `CC(C)(C)NC(=O)Nc1nc2nc(NCCCN3CCOCC3)ncc2cc1-c1c(Cl)cccc1Cl` the figure was 236 to 240 °C; with `COc1ccc(N(C)c2ncnc3occ(C)c23)cc1`, 84 to 85.6 °C; with `N#Cc1cnc2cc(Cl)c([N+](=O)[O-])cc2c1Nc1ccc(F)c(Cl)c1`, 259 to 263 °C. With `CCOC(=O)c1cnc2cc(OC)c(OC)cc2c1Cl` the figure was 147 to 150 °C; with `C=C(C)c1cccc(C(C)(C)NSc2nc3ccccc3s2)c1`, 93 to 95 °C; with `COc1c(C)cc(-c2cc(-c3ccncc3)c(N3CCOCC3)s2)nc1C`, 129 °C.

Compound `OCCN1CC=C(c2c[nH]c3ccccc23)CC1` returned a melting point of 164 to 165 °C.

As for `CC1(C(=O)O)CC1(Br)Br` (stereo not drawn), the melting point was 108 to 109 °C. As for `O=C(O)Cn1c(=O)sc2cc(Br)c(Cl)cc21`, the melting point is 249 to 252 °C.

The compound `O=C(O)C1(CSc2ccc3oc(-c4ccncc4)cc3c2)CCOCC1` returned a melting point of 227 °C. As for `Nc1nc(-c2ccc(CCN3CCN(c4cccc5cc(Cl)ccc45)CC3)cc2)cs1`, the figure is 210 to 215 °C. With `CCN(CC)CCOc1ccc(Nc2ncc3c(n2)N(c2cccc(CCN(C)C)c2)C(=O)N(c2ccc(Cl)cc2Cl)C3)cc1` the figure was 92 °C; with `CCOc1nc2cccc(C(=O)OC)c2n1Cc1ccc(-c2ccccc2C#N)cc1`, 168 to 170 °C. The compound `CCOc1nn(-c2ccc(C(F)(F)F)cn2)cc1CCCOc1cccc(C(C)(C)C(=O)O)c1` yielded a melting point of 131 to 132 °C. With `Fc1cccc(Nc2nc(OCC3CCCCC3)c3[nH]cnc3n2)c1` the figure was 224 to 227 °C. `O=C(NC(CO)c1ccc(-c2ccc(SC(F)F)cc2)cc1)c1c(F)cccc1F` (stereo not drawn): the melting point was 156 to 157 °C.

`O=C1NC(=O)C(=Cc2ccc(CCSc3ccccc3)cc2)S1`: the melting point lay within 159 to 161 °C. With `COC(=O)C(O)C(NC(=O)OCc1ccccc1)c1ccccc1` (stereo not drawn) the figure was 120 to 121 °C.

For the compound `CCCCNC(=O)Nc1ccc2c(c1Cl)C(c1ccccc1F)=NCC(=O)N2C`, the melting point was in the range of 196 to 198 °C. In turn, `CC(=O)Nc1ccc(S(=O)(=O)F)cc1` gave a melting point of 169 to 171 °C. As for `CC(=O)OC1Cc2ccc(N)cc2C1` (stereo not drawn), the figure is 237 to 239 °C. With `O=C(c1ccc(F)cc1)C1CCN(CCCC2(c3ccc(F)cc3)OCCO2)CC1` the figure was 62 to 64 °C; with `O=C1CC[C@H](CC(c2ccc(S(=O)(=O)C3CC3)cc2)c2nc(F)c(C(=O)C3CCC3)[nH]2)C1` (stereo partly drawn), 85 to 88 °C; with `COc1ccc(S(=O)(=O)C(C)(Cc2ccc(Br)cc2)C(=O)NO)cc1` (stereo not drawn), 86 to 88 °C. With `O=C(O)C1CSC(C2CCCCC2)=NN1C(=O)CCS` (stereo not drawn) the figure was 95 to 97 °C; with `C=C1CN(c2c(F)cc3c(=O)c(C(=O)O)cn([C@@H]4C[C@@H]4F)c3c2OC)C[C@@]1(C)N`, 100 to 102 °C; with `COc1ccc2sc(=Nc3ccccc3)sc2c1`, 58 to 60 °C. In turn, `O=c1cc(-c2ccccc2)oc(=O)[nH]1` gave a melting point of more than 210 °C. As for `CNC(=N[N+](=O)[O-])N(Cc1ccc(Cl)nc1)C(C)=O`, the figure is 124 to 125 °C; as for `COc1cc2ccc(C3CO3)cc2cc1OC` (stereo not drawn), 115 to 117 °C; as for `CCOC(=O)C(=CNc1nncs1)C(=O)OCC`, 107 to 111 °C. In turn, `Cc1cccnc1-c1cc2cccnc2c(=O)[nH]1` yielded a melting point of 225 to 227 °C. The compound `O=C1c2ccccc2CCn2cnnc21` displayed a melting point of 187 °C. With `N#Cc1c(N2CCN(C(=O)c3cccs3)CC2)c2ccccc2n(-c2ccccc2)c1=O` the figure was 289 °C. For `C=CCc1cc(C=C(C(=O)OCC)C(=O)OCC)ccc1OC`, the melting point came out at 69 °C.

`Cc1ccc(C=CC(=O)C=Cc2ccc(C)cc2)cc1` had a melting point of 174 to 176 °C. With `Cc1nn(CCO)c(C)c1Oc1cc(Cl)cc(C#N)c1` the figure was 114 to 116 °C; with `Cc1noc(NS(=O)(=O)c2ccc(I)cc2)c1Br`, 166 to 173 °C; with `CCOc1cccc(CC(=O)O)c1OCCn1cc(C(=O)NCc2ccc(Cl)cc2Cl)c(OC(C)C)n1`, 90 to 91 °C. The compound `CCCC[C@H]1CC[C@H](C(=O)O)CC1` came in with a melting point of 37 to 39 °C. As for `CCc1nc2sc(S(N)(=O)=O)cc2c(=O)n1-c1ccccc1Cl`, the figure is 253 °C. With `CCCOc1ccc(-c2ccc3c(c2)C=C(C(=O)Nc2ccc(CN(C)C4CCOCC4)cc2)CCN3C)cc1` the figure was 149 to 151 °C; with `NC(=O)[C@H]1CCc2[nH]c3ccc(F)cc3c2C1`, 170 to 172 °C. As for `O=C1c2ccc(Cl)cc2-n2c1nc1ccccc1c2=O`, the figure is 301 to 303 °C; as for `O=C(O)CC(CC(=O)O)Cc1ccc(O)cc1`, 117 to 119 °C; as for `CC(O)CN1C(=O)N(CN2C(=O)N(CC(C)O)C(=O)C2(C)C)C(C)(C)C1=O` (stereo not drawn), 131 to 133 °C. As for `CCOC(=O)C(=O)N1CCCc2c1ccc1[nH]c(=O)c(=O)[nH]c21`, the melting point was more than 285 °C. `CC(=O)CC(=O)NC1CCCCC1` yielded a melting point of 66 to 69 °C.

In turn, `CCOC(=O)c1ccc(-c2nc(COc3ccc(CCl)cc3OCC)c(C)o2)s1` came in with a melting point of 157 to 158 °C.

Regarding `COC(=O)c1cc(N(C)C)c2cc(Cc3ccc(F)cc3)cnc2c1O`, the melting point lay within 62 to 63 °C. In turn, `COc1cc2nc(N3CCN(c4nc5ccccc5o4)CC3)nc(N)c2cc1OC` registered a melting point of more than 250 °C. With `CC(=O)Nc1cccc(-c2csc(NC(N)=S)n2)c1C` the figure was 228 to 230 °C; with `CCOC(=O)C(=NO)C1=Nc2ccc(Cl)cc2C(c2ccccc2Cl)=NC1`, 219 to 221 °C; with `O=C(OCn1cc(F)c(=O)n(COC(=O)c2ccccc2)c1=O)c1ccccc1`, 178 to 180 °C.

`FC(F)(F)CNC(=S)NCc1ccc(OC(F)(F)F)cc1`: the melting point lay within 94.7 to 96.4 °C. As for `COc1ccccc1NC(=O)Nc1nc(N(CCC(=O)O)Cc2ccc(Cl)c(Cl)c2)nc(=O)[nH]1`, the figure is 188 °C. `COc1c(N(C)C)cc(CC(C#N)=CNc2ccccc2)cc1N(C)C(C)=O` gave a melting point of 176 to 178 °C. As for `COc1cc(CNc2ccc3c(c2)N2CCCN=C2S3)cc(OC)c1OC`, the figure is 191 °C; as for `Cc1c(CC(C)(C)C(=O)O)n(Cc2ccc(Cl)cc2)c2ccc(OCc3cccc(-c4ccccc4)n3)cc12`, 137 to 139 °C.

The compound `CNc1ccc(C#N)c(F)c1` returned a melting point of 110 to 112 °C. With `CN(C)C=NS(=O)(=O)c1cccc(Br)c1` the figure was 122 °C; with `CCOc1nsc(S(C)(=O)=O)c1S(C)(=O)=O`, 158 to 160 °C. As for `Cc1ccc(N2C(=O)C(O)=C(C(=O)c3ccc(C(C)C)cc3)C2c2ccc(OC3CC3)cc2)nn1` (stereo not drawn), the figure is 285 to 288 °C. With `CON=C(N)C1=Nc2ccc(Cl)cc2C(c2ccccc2F)=NC1` the figure was 120 to 124 °C; with `COC(=O)c1cccc2nc(SCCN3CCN(CC(=O)Nc4c(C(C)C)cccc4C(C)C)CC3)oc12`, 159 to 161 °C; with `CCN(CC)CCOc1ccc2c(=O)c3ccc(OCCN(CC)CC)cc3oc2c1`, 70.5 to 72 °C. The compound `CS(=O)c1ccc(-c2nc(-c3ccc(F)cc3)c(-c3ccncc3)[nH]2)cc1` (stereo not drawn) returned a melting point of 250 to 252 °C. As for `OCc1cccc(C=Cc2cccc(-c3ccsc3)c2)c1`, the figure is 79 to 81 °C; as for `CCOc1cc(CCC(=O)O)ccc1OCCCc1cn(-c2ccc(C(F)(F)F)cn2)nc1OCC`, 114 to 115 °C; as for `O=C(O)/C=C/c1ccc(-c2nc3c(=O)n(CC4CCCC4)c(=O)n(CC4CCCC4)c3[nH]2)cc1`, more than 300 °C. Take `CN1CCN(C(=O)OC2C3=C(SCCS3)C(=O)N2c2ccc3c(Cl)ccnc3n2)CC1` (stereo not drawn): the melting point is 240 °C.

Compound `CONC(=N)c1ccc(-c2ccc(-c3ccc(-c4ccc(C(=N)NOC)cc4)o3)o2)cc1` returned a melting point of 258 to 259 °C.

As to `C=CCC(NC(=O)C(C)(C)C)C(=O)O` (stereo not drawn), the melting point is 87 to 88 °C. With `NC(=O)c1sc2cncc(Oc3ccc(Cl)cc3)c2c1N` the figure was 202 to 204 °C; with `CC(=NO)c1ccc2c(c1)oc1ccccc12`, 132 to 135 °C. With `Cc1cc(=O)n(C)c2nc(-c3ccncc3)nn12` the figure was 195 to 197 °C. As for `CCc1ccccc1NC(=O)c1ccccc1SSc1ccccc1C(=O)Nc1ccccc1CC`, the figure is 255 to 256 °C; as for `CCOC(=O)NC1=NCC(c2ccc(F)cc2)N1C` (stereo not drawn), 117 to 118 °C; as for `Cc1cccc(NC(=O)NCC(=O)N(CC(=O)N(C)c2ccccc2)c2ccccc2C)c1`, 193 °C.

As usually defined, the melting point is the temperature of the solid-liquid transition.
